Columns and labels:
[1] = Inhibition of IL-23 induced STAT phosphorylation in HEK293 cells by Western blotting analysis; type: cell-based; conditions: Homo sapiens
[2] = Inhibition of IFNalpha induced STAT phosphorylation in HEK293 cells by Western blotting analysis; type: cell-based; conditions: Homo sapiens
[3] = Inhibition of IFNalpha induced STAT phosphorylation in human whole blood by fluorescence based analysis; type: tissue-based
[4] = biological target: T1, Non-receptor tyrosine-protein kinase TYK2 (Homo sapiens, UniProt P29597); assay: Inhibition of TYK2 signal transduction pathway in human TF-1 cells assessed as reduction in GM-CSF induced p-STAT5 level; type: cell-based
T1 sequence (P29597 whole entry): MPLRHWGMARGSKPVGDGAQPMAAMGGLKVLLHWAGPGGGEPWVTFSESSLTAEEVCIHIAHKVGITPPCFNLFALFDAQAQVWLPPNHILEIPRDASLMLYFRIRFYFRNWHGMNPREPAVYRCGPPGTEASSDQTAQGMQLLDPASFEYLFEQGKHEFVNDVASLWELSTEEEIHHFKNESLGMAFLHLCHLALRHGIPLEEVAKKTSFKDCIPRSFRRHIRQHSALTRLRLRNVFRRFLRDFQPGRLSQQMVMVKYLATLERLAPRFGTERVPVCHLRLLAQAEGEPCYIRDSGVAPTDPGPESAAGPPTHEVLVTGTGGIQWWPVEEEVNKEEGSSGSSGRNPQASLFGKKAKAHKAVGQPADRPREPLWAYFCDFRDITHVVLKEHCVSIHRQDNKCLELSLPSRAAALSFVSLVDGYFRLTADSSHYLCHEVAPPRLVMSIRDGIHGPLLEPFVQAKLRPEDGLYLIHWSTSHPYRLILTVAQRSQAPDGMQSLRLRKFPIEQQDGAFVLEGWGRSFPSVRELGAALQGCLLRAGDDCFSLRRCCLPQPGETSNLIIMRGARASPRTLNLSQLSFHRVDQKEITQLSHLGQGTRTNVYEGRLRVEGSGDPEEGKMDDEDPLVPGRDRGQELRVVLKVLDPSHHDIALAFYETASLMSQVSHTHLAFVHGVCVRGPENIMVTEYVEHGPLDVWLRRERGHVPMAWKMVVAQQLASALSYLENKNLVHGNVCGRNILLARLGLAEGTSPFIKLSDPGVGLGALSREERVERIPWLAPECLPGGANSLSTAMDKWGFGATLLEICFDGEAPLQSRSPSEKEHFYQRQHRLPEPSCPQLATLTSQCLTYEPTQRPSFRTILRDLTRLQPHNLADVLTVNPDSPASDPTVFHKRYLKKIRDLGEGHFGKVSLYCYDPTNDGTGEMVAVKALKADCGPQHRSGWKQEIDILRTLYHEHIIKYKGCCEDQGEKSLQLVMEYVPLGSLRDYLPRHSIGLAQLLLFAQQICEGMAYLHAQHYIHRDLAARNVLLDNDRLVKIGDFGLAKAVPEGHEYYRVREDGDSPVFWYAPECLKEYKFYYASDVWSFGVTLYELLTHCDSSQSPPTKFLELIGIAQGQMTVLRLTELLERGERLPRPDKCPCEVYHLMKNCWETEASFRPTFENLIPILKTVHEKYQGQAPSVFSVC

[5] = AUClast in mouse at 10 mg/kg, po measured upto 24 hrs by LC-MS/MS analysis; type: ADME, organism-based; parameters: dose 10 mg/kg, time < 24 hrs, route po; conditions: in vivo
[6] = Half life in mouse at 10 mg/kg, po measured upto 24 hrs by LC-MS/MS analysis; type: ADME, organism-based; conditions: in vivo
[7] = biological target: T2, JAK2/TYK2 (Homo sapiens, UniProt O60674+P29597); assay: Inhibition of JAK2/TYK2 signal transduction pathway in human NK92 cells assessed as IL-12 induced STAT4 phosphorylation; type: cell-based
T2 sequence (O60674 whole entry): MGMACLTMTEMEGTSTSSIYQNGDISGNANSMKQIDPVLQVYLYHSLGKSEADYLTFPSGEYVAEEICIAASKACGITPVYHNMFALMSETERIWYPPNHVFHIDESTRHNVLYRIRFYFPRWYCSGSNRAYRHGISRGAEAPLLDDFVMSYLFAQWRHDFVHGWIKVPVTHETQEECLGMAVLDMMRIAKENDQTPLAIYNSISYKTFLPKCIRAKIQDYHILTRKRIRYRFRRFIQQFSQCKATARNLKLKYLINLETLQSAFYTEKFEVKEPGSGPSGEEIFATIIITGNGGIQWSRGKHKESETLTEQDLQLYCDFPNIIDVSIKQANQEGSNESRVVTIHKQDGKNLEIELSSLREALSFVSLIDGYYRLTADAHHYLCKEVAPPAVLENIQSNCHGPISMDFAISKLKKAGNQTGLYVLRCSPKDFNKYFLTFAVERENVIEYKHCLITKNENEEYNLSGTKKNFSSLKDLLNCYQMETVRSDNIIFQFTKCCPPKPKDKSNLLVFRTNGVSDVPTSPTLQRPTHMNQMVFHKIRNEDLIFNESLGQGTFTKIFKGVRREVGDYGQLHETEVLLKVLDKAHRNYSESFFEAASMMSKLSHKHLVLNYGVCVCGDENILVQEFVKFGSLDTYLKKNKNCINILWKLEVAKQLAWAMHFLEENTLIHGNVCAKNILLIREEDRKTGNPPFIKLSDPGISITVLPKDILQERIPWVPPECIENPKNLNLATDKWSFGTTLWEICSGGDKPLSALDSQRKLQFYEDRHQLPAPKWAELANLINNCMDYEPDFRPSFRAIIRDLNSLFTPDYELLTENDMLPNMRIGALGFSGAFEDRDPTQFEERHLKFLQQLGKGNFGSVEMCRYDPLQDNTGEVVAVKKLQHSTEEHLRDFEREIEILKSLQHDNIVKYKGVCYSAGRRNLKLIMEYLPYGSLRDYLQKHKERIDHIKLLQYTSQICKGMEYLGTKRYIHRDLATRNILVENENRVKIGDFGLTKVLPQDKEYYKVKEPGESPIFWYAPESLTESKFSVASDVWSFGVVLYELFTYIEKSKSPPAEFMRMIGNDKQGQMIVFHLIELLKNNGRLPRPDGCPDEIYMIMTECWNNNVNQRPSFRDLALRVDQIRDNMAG
T2 sequence (P29597 whole entry): as the sequence (P29597 whole entry) above

[8] = Cmax in mouse at 10 mg/kg, po measured upto 24 hrs by LC-MS/MS analysis; type: ADME, organism-based; parameters: time < 24 hrs, dose 10 mg/kg, route po; conditions: in vivo
[9] = biological target: T1, Non-receptor tyrosine-protein kinase TYK2; assay: Inhibition of TYK2 JH2 in human TF-1 cells assessed as reduction of IFNalpha induced STAT1 phosphorylation; type: cell-based
[10] = biological target: T2, JAK2/TYK2; assay: Inhibition of JAK2/TYK2 signal transduction pathway in human NK92 cells assessed as […] induced IFNgamma expression incubated for 24 hrs by ELISA assay; type: cell-based
[11] = biological target: T1, Non-receptor tyrosine-protein kinase TYK2; assay: Inhibition of human recombinant TYK2 preincubated for 15 mins followed by substrate addition measured after 60 mins by HTRF assay
[12] = biological target: T3, Tyrosine-protein kinase JAK1 (Homo sapiens, UniProt P23458); assay: Inhibition of human recombinant JAK1 preincubated for 15 mins followed by substrate addition measured after 60 mins by HTRF assay
T3 sequence (P23458 whole entry): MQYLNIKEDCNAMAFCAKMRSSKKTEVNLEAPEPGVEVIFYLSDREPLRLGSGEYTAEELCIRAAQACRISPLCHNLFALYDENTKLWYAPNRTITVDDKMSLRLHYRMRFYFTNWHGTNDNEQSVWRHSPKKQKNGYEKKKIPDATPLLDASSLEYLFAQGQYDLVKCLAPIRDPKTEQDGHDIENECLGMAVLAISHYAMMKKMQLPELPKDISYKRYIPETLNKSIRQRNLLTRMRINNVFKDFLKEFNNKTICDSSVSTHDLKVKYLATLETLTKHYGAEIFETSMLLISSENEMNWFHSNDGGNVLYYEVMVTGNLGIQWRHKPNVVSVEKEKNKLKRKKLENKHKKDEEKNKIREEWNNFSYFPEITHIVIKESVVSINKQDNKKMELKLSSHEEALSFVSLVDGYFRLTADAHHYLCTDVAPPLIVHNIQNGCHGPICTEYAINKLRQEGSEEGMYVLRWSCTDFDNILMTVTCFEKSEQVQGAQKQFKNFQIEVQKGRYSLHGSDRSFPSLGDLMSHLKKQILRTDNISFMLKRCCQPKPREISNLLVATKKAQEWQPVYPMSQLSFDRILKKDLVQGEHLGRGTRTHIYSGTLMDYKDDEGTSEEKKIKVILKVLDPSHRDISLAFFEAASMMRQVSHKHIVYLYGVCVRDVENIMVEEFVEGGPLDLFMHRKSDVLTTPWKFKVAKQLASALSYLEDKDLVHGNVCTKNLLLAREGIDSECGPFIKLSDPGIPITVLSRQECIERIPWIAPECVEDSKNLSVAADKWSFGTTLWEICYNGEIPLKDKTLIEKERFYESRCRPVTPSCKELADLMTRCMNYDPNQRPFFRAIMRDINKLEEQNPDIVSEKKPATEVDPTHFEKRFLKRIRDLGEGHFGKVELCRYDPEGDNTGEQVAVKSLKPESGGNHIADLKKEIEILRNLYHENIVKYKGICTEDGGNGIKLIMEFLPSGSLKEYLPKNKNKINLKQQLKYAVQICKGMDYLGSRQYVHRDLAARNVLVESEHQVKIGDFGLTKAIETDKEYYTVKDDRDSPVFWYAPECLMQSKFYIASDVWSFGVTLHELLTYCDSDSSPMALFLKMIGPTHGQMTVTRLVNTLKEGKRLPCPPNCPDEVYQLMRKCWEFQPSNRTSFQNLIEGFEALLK

[13] = biological target: T4, Tyrosine-protein kinase JAK3 (Homo sapiens, UniProt P52333); assay: Inhibition of human recombinant JAK3 preincubated for 15 mins followed by substrate addition measured after 60 mins by HTRF assay
T4 sequence (P52333 whole entry): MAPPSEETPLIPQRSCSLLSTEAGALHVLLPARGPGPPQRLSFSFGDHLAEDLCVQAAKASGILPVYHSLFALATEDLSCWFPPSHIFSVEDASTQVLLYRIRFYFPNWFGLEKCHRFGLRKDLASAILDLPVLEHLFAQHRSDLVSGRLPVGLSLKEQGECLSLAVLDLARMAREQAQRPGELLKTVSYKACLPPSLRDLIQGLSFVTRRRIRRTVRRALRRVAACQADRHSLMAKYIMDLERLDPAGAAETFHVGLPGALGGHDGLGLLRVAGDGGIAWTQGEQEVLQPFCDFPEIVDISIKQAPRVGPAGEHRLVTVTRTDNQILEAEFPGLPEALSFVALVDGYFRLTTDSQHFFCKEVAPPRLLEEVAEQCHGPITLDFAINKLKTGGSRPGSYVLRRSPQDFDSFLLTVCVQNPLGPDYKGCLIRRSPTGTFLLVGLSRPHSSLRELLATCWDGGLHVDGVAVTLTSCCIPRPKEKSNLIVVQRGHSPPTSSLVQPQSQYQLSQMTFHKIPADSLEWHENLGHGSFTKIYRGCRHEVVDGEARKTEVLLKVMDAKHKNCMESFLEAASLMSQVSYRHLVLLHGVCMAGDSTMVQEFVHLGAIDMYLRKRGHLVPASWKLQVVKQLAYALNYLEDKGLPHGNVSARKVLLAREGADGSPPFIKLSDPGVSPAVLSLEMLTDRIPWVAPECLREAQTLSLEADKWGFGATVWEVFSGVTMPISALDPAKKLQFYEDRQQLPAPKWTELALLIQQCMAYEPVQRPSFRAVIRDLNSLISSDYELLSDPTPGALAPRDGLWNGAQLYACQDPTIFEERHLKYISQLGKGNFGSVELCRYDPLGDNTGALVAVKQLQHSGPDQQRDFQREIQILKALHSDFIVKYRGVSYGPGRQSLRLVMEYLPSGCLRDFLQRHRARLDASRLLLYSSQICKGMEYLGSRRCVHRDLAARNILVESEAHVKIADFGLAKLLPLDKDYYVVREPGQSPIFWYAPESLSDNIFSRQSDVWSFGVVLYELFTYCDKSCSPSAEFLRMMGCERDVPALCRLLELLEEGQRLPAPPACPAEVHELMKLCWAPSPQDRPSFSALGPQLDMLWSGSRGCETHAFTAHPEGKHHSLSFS

[14] = biological target: T5, Tyrosine-protein kinase JAK2 (Homo sapiens, UniProt O60674); assay: Inhibition of human recombinant JAK2 preincubated for 15 mins followed by substrate addition measured after 60 mins by HTRF assay
T5 sequence (O60674 whole entry): as the sequence (O60674 whole entry) above

[15] = biological target: T5, Tyrosine-protein kinase JAK2; assay: Binding affinity to JAK2 JH1 (unknown origin)
[16] = biological target: T1, Non-receptor tyrosine-protein kinase TYK2; assay: Binding affinity to TYK2 JH2 (unknown origin)
[17] = biological target: T1, Non-receptor tyrosine-protein kinase TYK2; assay: Inhibition of TYK2 signal transduction pathway in human PBMC cells assessed as reduction in GM-CSF induced p-STAT5 level; type: cell-based
[18] = biological target: T1, Non-receptor tyrosine-protein kinase TYK2; assay: Inhibition of TYK2 signal transduction pathway in human PBMC cells assessed as IL-2 induced p-STAT5 level; type: cell-based
[19] = biological target: T1, Non-receptor tyrosine-protein kinase TYK2; assay: Inhibition of TYK2 signal transduction pathway in human PBMC cells assessed as IFNalpha induced p-STAT5 level; type: cell-based
[20] = biological target: T3, Tyrosine-protein kinase JAK1; assay: Binding affinity to JAK1 JH2 (unknown origin)
[21] = biological target: T1, Non-receptor tyrosine-protein kinase TYK2; assay: Inhibition of TYK2 JH2 (unknown origin) by scintillation proximity assay
[22] = biological target: T4, Tyrosine-protein kinase JAK3; assay: Inhibition of JAK3 (unknown origin) using ULight - JAK (Tyr1023) substrate incubated for 60 mins in presence of ATP by envision plate reader based analysis
[23] = biological target: T1, Non-receptor tyrosine-protein kinase TYK2; assay: Binding affinity to human wild-type partial length TYK2 JH2 (G556 to D888 residues) expressed in mammalian expression system by KINOMEscan assay

[2H]C([2H])([2H])NC(=O)c1nnc(NC(=O)C2CC2)cc1Nc1cccc2c1N(C)Cc1cn(C)nc1-2
IC50 [1]: < 30 nM
IC50 [2]: < 30 nM

O=C(Nc1cc2c(cn1)c(=O)[nH]n2-c1ccccc1)C1CC1
IC50 [1]: < 10000 nM
IC50 [2]: < 10000 nM

[2H]C([2H])([2H])NC(=O)c1cnc(Nc2cc(C3CC3)ncn2)cc1Nc1ncccc1S(C)(=O)=O
IC50 [3]: 9 nM

COc1cc(Nc2cc(NC(C)=O)ncc2-c2ccc3c(n2)OCC(C)(C)O3)nc(S(C)(=O)=O)c1
IC50 [4]: 1820 nM
AUC(0-t) at 24 h [5]: 16200 ng·h/mL
half-life [6]: 3.01 h
IC50 [7]: 0.053 nM
Cmax [8]: 2820 ng/mL

CNc1cc(Nc2ccccc2OC)nc2c(C(=O)N[C@@H]3CCN(C)C3=O)cnn12
IC50 [9]: 8 nM

NC(=O)c1nnc(-c2c(F)cccc2F)cc1Nc1ccc(N2CCOCC2=O)cn1
IC50 [10]: 0.3 nM
IC50 [11]: 0.08 nM
IC50 [12]: 81 nM
IC50 [13]: 7 nM
IC50 [14]: 5 nM

[2H]C([2H])([2H])NC(=O)c1nnc(NC(=O)C2CC2)cc1Nc1cccc(-c2ncc(C(=O)N3CCN(C4CCCC4)CC3)s2)c1OC
IC50 [3]: 40 nM

COC(=O)c1nnc(NC(=O)C2CC2)cc1Nc1cccc2c1N(C)Cc1cn(C)nc1-2
IC50 [1]: < 30 nM
IC50 [2]: < 30 nM

[2H]C([2H])([2H])CC(=O)c1cnc(Nc2cccc(C#N)n2)cc1Nc1nccc(-c2ncn(C([2H])([2H])[2H])n2)c1OC
Kd [15]: > 10000 nM
Kd [16]: ≤ 10 nM
IC50 [17]: ≤ 1000 nM
IC50 [18]: ≤ 100 nM
IC50 [19]: < 100 nM
Kd [20]: ≤ 100 nM

[2H]C([2H])([2H])NC(=O)c1nnc(Nc2ccc(C(C)(C)O)cn2)cc1Nc1nc(C)ccc1S(C)(=O)=O
IC50 [3]: 6 nM

[2H]C([2H])([2H])CC(=O)c1cnc(NC(=O)C2CC2)cc1Nc1nccc(-c2ncn(C([2H])([2H])[2H])n2)c1OC
Kd [15]: ≤ 1000 nM
Kd [16]: ≤ 10 nM
IC50 [17]: > 10000 nM
IC50 [18]: ≤ 1000 nM
IC50 [19]: < 100 nM
Kd [20]: ≤ 100 nM

[2H]C([2H])([2H])n1nnc2c3cc(cc21)CO[C@@H]1CCC[C@H]1NC(=O)c1cnc2c(NC)cc(nn12)N3
Kd [16]: 0.002 nM
IC50 [19]: 1.7 nM

CNc1cc(Nc2cccc3c2OCCC3)nc2c(C(=O)N[C@@H]3CCN(C)C3=O)cnn12
IC50 [9]: 7 nM
IC50 [21]: < 254 nM

NC(=O)c1nnc(-c2c(F)cccc2Cl)cc1Nc1ccc(N2CCOCC2)cc1
IC50 [10]: 0.4 nM
IC50 [11]: 0.2 nM
IC50 [12]: 37 nM
IC50 [13]: 11 nM
IC50 [14]: 9 nM

[2H]C([2H])([2H])NC(=O)c1nnc(Nc2ccc(F)cn2)cc1Nc1cccc2c1N(C)Cc1n[nH]c(=O)n1-2
IC50 [1]: < 30 nM
IC50 [2]: < 30 nM

COc1cc(Nc2cc(NC(C)=O)ncc2-c2ccc(F)cn2)nc(S(C)(=O)=O)c1
IC50 [4]: > 10000 nM
AUC(0-t) at 24 h [5]: 2100 ng·h/mL
half-life [6]: 1.48 h
IC50 [7]: 1.82 nM
Cmax [8]: 911 ng/mL

[2H]C([2H])([2H])NC(=O)c1nnc(NC(=O)C2CC2)cc1Nc1cccc2c1N(C)Cc1cccnc1-2
IC50 [1]: < 30 nM
IC50 [2]: < 30 nM

CNc1cc(Nc2cccn(-c3ccccn3)c2=O)nc2c(C(=O)N[C@@H]3CCN(C)C3=O)cnn12
IC50 [9]: 112 nM
IC50 [21]: < 254 nM

CCOc1cccc(Nc2cc(NC)n3ncc(C(=O)N[C@@H]4CCN(C)C4=O)c3n2)n1
IC50 [9]: 38 nM
IC50 [21]: < 254 nM

NC(=O)c1nnc(-c2c(F)cccc2F)cc1Nc1ccc(N2CCOCC2)cn1
IC50 [10]: 0.08 nM
IC50 [11]: < 0.06 nM
IC50 [12]: 38 nM
IC50 [13]: 1 nM
IC50 [14]: 4 nM

[2H]C([2H])([2H])NC(=O)c1nnc(NC(=O)C2CC2)cc1Nc1cccc2c1N(C)Cc1nc(C)nn1-2
IC50 [1]: < 30 nM
IC50 [2]: < 30 nM

[2H]C([2H])([2H])CC(=O)c1cnc(Nc2cccc(C#N)n2)cc1Nc1cccc(-c2ncn(C([2H])([2H])[2H])n2)c1OC
Kd [15]: > 10000 nM
Kd [16]: ≤ 10 nM
IC50 [17]: ≤ 1000 nM
IC50 [18]: ≤ 100 nM
IC50 [19]: < 100 nM
Kd [20]: ≤ 100 nM

Cn1cc(-c2cn3ncnc3c(-c3ccn([C@]4(CC#N)C[C@H](C#N)C4)c3)n2)cn1
IC50 [22]: > 5000 nM

[2H]C([2H])([2H])NC(=O)c1nnc(NC(=O)C2CC2)cc1Nc1cccc2c1N(C)Cc1cn(C([2H])([2H])[2H])nc1-2
IC50 [1]: < 30 nM
IC50 [2]: < 30 nM

[2H]C([2H])([2H])NC(=O)c1nnc(NC(=O)[C@H]2CC23CC3)cc1Nc1ncccc1S(C)(=O)=O
IC50 [3]: 47 nM

COc1cc(Nc2cc(NC(C)=O)ncc2-c2ccc(C(C)(C)O)cn2)nc(S(C)(=O)=O)c1
IC50 [4]: > 10000 nM
AUC(0-t) at 24 h [5]: 19.3 ng·h/mL
half-life [6]: 2.07 h
IC50 [7]: 1 nM
Cmax [8]: 8.73 ng/mL

CNc1cc2nn3c(cnc13)C(=O)N[C@H](C)COCc1ccc(OC)c(c1)N2
Kd [15]: 7300 nM
Kd [16]: 0.002 nM
IC50 [18]: > 10000 nM
IC50 [19]: 1.2 nM
Kd [20]: 430 nM

[2H]C([2H])([2H])NC(=O)c1nnc(NC(=O)C2CC2)cc1Nc1cccc(-n2cc3c(n2)CN(S(C)(=N)=O)C3)c1OC (stereo not given)
Kd [23]: 0.009 nM

[2H]C([2H])([2H])NC(=O)c1nnc(NC(=O)C2CC2)cc1Nc1cccc(-c2noc(CN3CCN(S(C)(=N)=O)CC3)n2)c1OC (stereo not given)
Kd [23]: 0.008 nM

[2H]C([2H])([2H])NC(=O)c1nnc(NC(=O)C2CC2)cc1Nc1cccc(-c2nc(CN3CCN(S(C)(=O)=O)CC3)no2)c1OC
IC50 [3]: 30 nM

[2H]C([2H])([2H])NC(=O)c1nnc(NC(=O)C2CC2)cc1Nc1cccc(-c2noc(CN3CCN(S(C)(=O)=O)CC3)n2)c1OC
IC50 [3]: 30 nM

— ChEMBL document CHEMBL5380830, “Development and Therapeutic Implications of Tyrosine Kinase 2 Inhibitors” (J Med Chem, 2023)
